By LC50 is commonly meant the concentration that kills 50% of the test population.

The data set relates to Spodoptera littoralis larvae (2nd and 4th instars). The data set is described as follows: Insecticidal bioassay screening (castor leaf dip). The note with it: for LC50 (ppm): after 72 h of treatment; for Toxic ratio: 72 h, fenoxycarb's LC50/compound's LC50 × 100. The format is in vivo. How it is done: Five concentrations (200, 100, 50, 25, 12.5 ppm) were designed for this synthetic compound and the reference fenoxycarb compound as the dynamic ingredients based on ppm via diluting the commercial formulation.
In this experiment, castor leaves are immersed in each of the previously prepared concentrations of the components for 10 seconds and then left to dry for 60 minutes. Larvae of the second and fourth instars of each checked strain are prepared with treated leaves in gauze-covered glass containers for 72 hrs. An untreated control is made in which leaves are dipped in triton x-100 and distilled water only. Then the preserved leaves were removed & fresh, untreated leaves were provided for 72 hours. Three replicates (10 larvae each) were checked for each concentration. Daily inspection was carried out for all treatments and mortality percentages were recorded 3 days (72 hours) after treatment. The average mortality percentage was corrected employing Abbott's formula. The corrected mortality rate for each of the previously synthesized compounds is statistically calculated according to Finney (1970). Through this rate, the corresponding concentration test lines (LDP lines) are assessed. Fifty and ninety percent mortality are determined, and the regression values for the checked products were previously evaluated.

Converted amounts (≈) assume the structure as drawn.

For the molecule `CCOC(=O)NCCOc1ccc(Oc2ccccc2)cc1` [Fenoxycarb, reference compound], the “LC50 (ppm)” value (2nd instar larvae of S. littoralis) was 2.73 ppm and the “LC50 (ppm)” value (4th instar larvae of S. littoralis) is 43.231 ppm. Further, the Toxic ratio (2nd instar larvae) stood at 100 and the Toxic ratio (4th instar larvae) turned out to be 1.

Take `OC(COc1ccc2ccccc2c1)CN1CCCCC1` (stereo not drawn) [Compound 1, 1-(naphthalen-2-yloxy)-3-(piperidin-1-yl)propan-2-ol]: the Toxic ratio reads like this: (2nd instar larvae) 10.9; (4th instar larvae) 59.8. Where the note is “Spodoptera littoralis, foliar”, this molecule returned a 50% lethal concentration (LC50) of 25 µg/mL (≈ 87.7 µM). Also, the “morphological effect on Spodoptera littoralis (FIGURE)” value (after administration of the compound) was “morphological malformations”. Besides, the “activity against Spodoptera littoralis (in words)” value (compared with reference insecticide fenoxycarb) is recorded as “active against Spodoptera littoralis”.

The values above are taken from patent publication US12180160B1, “1-(naphthalen-2-yloxy)-3-(piperidin-1-yl)propan-2-ol as an eco-friendly insecticidal agent against Spodoptera littoralis (boisd.)” (priority 2023, dated 2024).
